Numbered stars: 1 amine (or outer) side, 2 acyl side, 3 side chain; on linkers, the order of the positions; unused ones are H or OH. Bridge positions count the residues as written; N and C are the ends. Square brackets hold non-standard residues; d marks the D form. Peptide text beside a SMILES is read from it. * marks the point of attachment. C20 diacid = O=C(O)CCCCCCCCCCCCCCCCCCC(=O)*; γGlu = O=C(O)[C@H](CCC(=O)[*:2])N[*:1]; NMeI = CC[C@H](C)[C@H](NC)C(=O)O; Sar = CNCC(=O)O
Test: Pharmacokinetic (PK) profiling in rats
Assay type: in vivo
Conditions: male, Sprague Dawley, rat, plasma, single sc bolus, 100 nmol/kg (18, NN96), 20 nmol/kg (72, 76), 30 nmol/kg (73, 82, 118, 162, 166, 172); for CL/F: apparent clearance; for half-life: terminal elimination half-life, read-out: t½ (converted)
Procedure: Sprague Dawley male rats were given a single subcutaneous (sc) bolus of each peptide to be tested at doses as specified below..
Study A: Following the administration of a 100 nmol/kg dose of a test peptide of the invention (Compound 18) and a comparison pramlintide analogue NN96 (see Example 5, above), respectively, blood samples were drawn from the tail vein at 0.5, 3, 8, 15, 36, 60 and 81 hours post-dosing. 4 rats were used (2 rats per compound). The rats were euthanized immediately after the last blood sampling by overdose of O2/CO2.
Study B: 20 nmol/kg doses of Compound 72 and Compound 76, respectively, of the invention were administered. Blood samples were drawn by sublingual bleeding prior to dosing and at 2, 6, 12, 24, 48, 72 and 96 hours after dosing. 4 rats were used (2 rats per compound). The rats were euthanized immediately after the last blood sampling by overdose of O2/CO2.
Study C: 30 nmol/kg doses of Compound 73, Compound 82 and Compound 118, respectively, of the invention were administered. Blood samples were drawn from the tail vein prior to dosing and at 24, 48, 72 and 96 hours after dosing. Blood samples were taken from two rats at each time point, and only 2 blood samples were drawn from each rat, i.e. 8 rats were used for each compound. The rats were euthanized immediately after the last blood sampling by concussion and cervical dislocation.
Study D: 30 nmol/kg doses of Compound 162, Compound 166 and Compound 172 were administered. Blood samples were drawn from the tail vein prior to dosing and at 24, 48, 72, 96 and 168 hours after dosing. Blood samples were taken from two rats at each time point, and only 2 blood samples were drawn from each rat, i.e. 10 rats were used for each compound. The rats were euthanized immediately after the last blood sampling by concussion and cervical dislocation.
The dosing vehicle used for each test peptide was a mannitol-containing histidine buffer (pH 7.0). Plasma samples were analyzed after precipitation with ethanol by liquid chromatography mass spectrometry (LC-MS/MS). Mean plasma concentrations were used for calculation of the pharmacokinetic parameters using the non-compartmental approach in Phoenix WinNonlin 6.3.
Plasma terminal elimination half-life (t½) was determined as In(2)/λz, where λz is the magnitude of the slope of the log linear regression of the log concentration versus time profile during the terminal phase. Apparent clearance (CL/F) was determined as dose/AUCinf (sc), where AUCinf is the area under the plasma concentration vs. time curve extrapolated to infinity (AUCinf = AUClast + Clast/λz, where Clast is the last observed plasma concentration).

SMILES	CL/F [mL/h/kg]	half-life [h]
CC[C@H](C)[C@@H](C(=O)N[C@@H](CC(C)C)C(=O)N[C@@H](CO)C(=O)N[C@@H](CO)C(=O)N[C@H](C(=O)N[C@@H](CCC(=O)O)C(=O)N[C@H](C(=O)NCC(=O)N[C@@H](CO)C(=O)N[C@@H](CCC(=O)O)C(=O)N[C@H](C(=O)N1CCC[C@H]1C(N)=O)[C@@H](C)O)C(C)C)[C@@H](C)O)N(C)C(=O)[C@H](C)NC(=O)CN(C)C(=O)[C@H](Cc1ccccc1)NC(=O)[C@H](CO)NC(=O)[C@H](CO)NC(=O)[C@H](CCCNC(=N)N)NC(=O)[C@H](Cc1c[nH]cn1)NC(=O)[C@H](CC(C)C)NC(=O)[C@H](Cc1ccccc1)NC(=O)[C@H](CCC(=O)O)NC(=O)[C@H](C)NC(=O)[C@H](CC(C)C)NC(=O)[C@H](CCCNC(=N)N)NC(=O)[C@H](CCC(N)=O)NC(=O)[C@@H](NC(=O)[C@H](C)NC(=O)[C@@H]1CSSC[C@H](NC(=O)[C@H](CCCNC(=N)N)NC(=O)CC[C@H](NC(=O)CCCCCCCCCCCCCCCCCCC(=O)O)C(=O)O)C(=O)N[C@@H](CC(N)=O)C(=O)N[C@@H]([C@@H](C)O)C(=O)N[C@@H](C)C(=O)N[C@@H]([C@@H](C)O)C(=O)N1)[C@@H](C)O [Compound 82, [19CD]-isoGlu-RC()NTATC()ATQRLAEFLHRSSF-Gly(Me)-A-Ile(Me)-LSSTEVGSETP-NH2] ({C20 diacid-γGlu}-RCNTATCATQRLAEFLHRSSF[Sar]A[NMeI]LSSTEVGSETP-NH2; disulfide 2-7)	4.01	44.2
CC[C@H](C)[C@@H](C(=O)N[C@@H](CC(C)C)C(=O)N[C@@H](CO)C(=O)N[C@@H](CO)C(=O)N[C@H](C(=O)N[C@@H](CC(=O)O)C(=O)N[C@H](C(=O)NCC(=O)N[C@@H](CO)C(=O)N[C@@H](CC(=O)O)C(=O)N[C@H](C(=O)N1CCC[C@H]1C(N)=O)[C@@H](C)O)C(C)C)[C@@H](C)O)N(C)C(=O)[C@H](C)NC(=O)CN(C)C(=O)[C@H](Cc1ccccc1)NC(=O)[C@H](CO)NC(=O)[C@H](CO)NC(=O)[C@H](CO)NC(=O)[C@H](CO)NC(=O)[C@H](CCCNC(=N)N)NC(=O)[C@H](Cc1c[nH]cn1)NC(=O)[C@H](CC(C)C)NC(=O)[C@H](Cc1ccccc1)NC(=O)[C@H](CCC(=O)O)NC(=O)[C@H](C)NC(=O)[C@H](CC(C)C)NC(=O)[C@H](CCCNC(=N)N)NC(=O)[C@H](CCC(N)=O)NC(=O)[C@@H](NC(=O)[C@H](C)NC(=O)[C@@H]1CSSC[C@H](NC(=O)[C@H](CCCNC(=N)N)NC(=O)CC[C@H](NC(=O)CCCCCCCCCCCCCCCCCCC(=O)O)C(=O)O)C(=O)N[C@@H](CC(N)=O)C(=O)N[C@@H]([C@@H](C)O)C(=O)N[C@@H](C)C(=O)N[C@@H]([C@@H](C)O)C(=O)N1)[C@@H](C)O [Compound 73, [19CD]-isoGlu-RC()NTATC()ATQRLAEFLHRSSSSF-Gly(Me)-A-Ile(Me)-LSSTDVGSDTP-NH2] ({C20 diacid-γGlu}-RCNTATCATQRLAEFLHRSSSSF[Sar]A[NMeI]LSSTDVGSDTP-NH2; disulfide 2-7)	3.06	55.4
CC[C@H](C)[C@H](NC(=O)[C@@H]1CCCN1C(=O)CNC(=O)[C@H](Cc1ccccc1)NC(=O)[C@H](CC(N)=O)NC(=O)[C@H](CC(N)=O)NC(=O)[C@H](CO)NC(=O)[C@H](CO)NC(=O)[C@H](Cc1c[nH]cn1)NC(=O)[C@H](Cc1c[nH]cn1)NC(=O)[C@H](CC(C)C)NC(=O)[C@H](Cc1ccccc1)NC(=O)[C@H](CCC(=O)O)NC(=O)[C@H](C)NC(=O)[C@H](CC(C)C)NC(=O)[C@H](CCCNC(=N)N)NC(=O)[C@H](CCC(N)=O)NC(=O)[C@@H](NC(=O)[C@H](C)NC(=O)[C@@H]1CSSC[C@H](NC(=O)[C@H](CCCNC(=N)N)NC(=O)CC[C@H](NC(=O)CCCCCCCCCCCCCCCCCCC(=O)O)C(=O)O)C(=O)N[C@@H](CC(N)=O)C(=O)N[C@@H]([C@@H](C)O)C(=O)N[C@@H](C)C(=O)N[C@@H]([C@@H](C)O)C(=O)N1)[C@@H](C)O)C(=O)N[C@@H](CC(C)C)C(=O)N1CCC[C@H]1C(=O)N1CCC[C@H]1C(=O)N[C@H](C(=O)N[C@@H](CC(N)=O)C(=O)N[C@H](C(=O)NCC(=O)N[C@@H](CO)C(=O)N[C@@H](CC(N)=O)C(=O)N[C@H](C(=O)N1CCC[C@H]1C(N)=O)[C@@H](C)O)C(C)C)[C@@H](C)O [NN96, N-α-[(S)-4-carboxy-4-(19-carboxynonadecanoylamino)butyryl]-[Arg1,Glu14,His17,Pro37]-pramlintide, reference compound] ({C20 diacid-γGlu}-RCNTATCATQRLAEFLHHSSNNFGPILPPTNVGSNTP-NH2; disulfide 2-7)	4.73	34.7

Now from value to molecule:

CL/F [mL/h/kg]	half-life [h]	SMILES
3.51	56.4	CC[C@H](C)[C@@H](C(=O)N[C@@H](CC(C)C)C(=O)N[C@@H](CO)C(=O)N[C@@H](CO)C(=O)N[C@H](C(=O)N[C@@H](CCC(=O)O)C(=O)N[C@H](C(=O)NCC(=O)N[C@@H](CO)C(=O)N[C@@H](CCC(=O)O)C(=O)N[C@H](C(=O)N1CCC[C@H]1C(N)=O)[C@@H](C)O)C(C)C)[C@@H](C)O)N(C)C(=O)[C@H](C)NC(=O)CN(C)C(=O)[C@H](Cc1ccccc1)NC(=O)[C@H](CO)NC(=O)[C@H](CO)NC(=O)[C@H](CO)NC(=O)[C@H](CO)NC(=O)[C@H](CCCNC(=N)N)NC(=O)[C@H](Cc1c[nH]cn1)NC(=O)[C@H](CC(C)C)NC(=O)[C@H](Cc1ccccc1)NC(=O)[C@H](CCC(=O)O)NC(=O)[C@H](C)NC(=O)[C@H](CC(C)C)NC(=O)[C@H](CCCNC(=N)N)NC(=O)[C@H](C)NC(=O)[C@@H](NC(=O)[C@H](C)NC(=O)[C@@H]1CSSC[C@H](NC(=O)[C@H](CCCNC(=N)N)NC(=O)CC[C@H](NC(=O)CCCCCCCCCCCCCCCCCCC(=O)O)C(=O)O)C(=O)N[C@@H](CC(N)=O)C(=O)N[C@@H]([C@@H](C)O)C(=O)N[C@@H](C)C(=O)N[C@@H]([C@@H](C)O)C(=O)N1)[C@@H](C)O [Compound 118, [19CD]-isoGlu-RC()NTATC()ATARLAEFLHRSSSSF-Gly(Me)-A-Ile(Me)-LSSTEVGSETP-NH2] ({C20 diacid-γGlu}-RCNTATCATARLAEFLHRSSSSF[Sar]A[NMeI]LSSTEVGSETP-NH2; disulfide 2-7)
9.16	24.4	CC[C@H](C)[C@@H](C(=O)N[C@@H](CC(C)C)C(=O)N[C@@H](CO)C(=O)N[C@@H](CO)C(=O)N[C@H](C(=O)N[C@@H](CC(=O)O)C(=O)N[C@H](C(=O)NCC(=O)N[C@@H](CO)C(=O)N[C@@H](CC(=O)O)C(=O)N[C@H](C(=O)N1CCC[C@H]1C(N)=O)[C@@H](C)O)C(C)C)[C@@H](C)O)N(C)C(=O)[C@H](C)NC(=O)CN(C)C(=O)[C@H](Cc1ccccc1)NC(=O)[C@H](CO)NC(=O)[C@H](CO)NC(=O)[C@H](CCCNC(=N)N)NC(=O)[C@H](Cc1c[nH]cn1)NC(=O)[C@H](CC(C)C)NC(=O)[C@H](Cc1ccccc1)NC(=O)[C@H](CCC(=O)O)NC(=O)[C@H](C)NC(=O)[C@H](CC(C)C)NC(=O)[C@H](CCCNC(=N)N)NC(=O)[C@H](CC(=O)O)NC(=O)[C@@H](NC(=O)[C@H](C)NC(=O)[C@@H]1CSSC[C@H](NC(=O)[C@H](CCCNC(=N)N)NC(=O)CC[C@H](NC(=O)CCCCCCCCCCCCCCCCCCC(=O)O)C(=O)O)C(=O)N2CCC[C@H]2C(=O)N[C@@H]([C@@H](C)O)C(=O)N[C@@H](C)C(=O)N[C@@H]([C@@H](C)O)C(=O)N1)[C@@H](C)O [Compound 172, [19CD]-isoGlu-RC()PTATC()ATDRLAEFLHRSSF-Gly(Me)-A-Ile(Me)-LSSTDVGSDTP-NH2] ({C20 diacid-γGlu}-RCPTATCATDRLAEFLHRSSF[Sar]A[NMeI]LSSTDVGSDTP-NH2; disulfide 2-7)

— patent EP3046573B1, “AMYLIN ANALOGUES” (Zealand Pharma A/S, priority 2013, dated 2015)
